# Target: KRasG12C (M1-K169, biotinylated on the N-terminus) (Homo sapiens (Human), UniProt P01116, G12C)
# Assay: Covalent competition assay: scintillation proximity assay (SPA) quantifying covalent modification of KRASG12C
# Type: binding
# Conditions: competition with radiolabeled covalent probe (Compound B/Compound A), 2 hours incubation, 10 nM KRasG12C
# Procedure, shortened: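 Test compounds compete with a radiolabeled covalent probe for modification of N-terminally biotinylated KRasG12C(M1-K169):GDP, final 10 nM protein, 25 nM radio-ligand, 475 nM unlabelled ligand, 2 h with agitation in 20 mM Tris-HCl pH 7.5, 150 mM NaCl, 0.1 mM MgCl2, 0.01% Tween-20.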
row,Compound,IC50
1,"C=CC(=O)N1CC2(CC(n3nc(N4CCN(C5COC5)C5COCC54)c(-c4c(Cl)c(C)cc5[nH]ncc45)c3C)C2)C1 (stereo not drawn) [Example 136b, 1-(6-(4-(5-chloro-6-methyl-1H-indazol-4-yl)-5-methyl-3-((4aS*,7aS*)-4-(oxetan-3-yl)hexahydrofuro[3,4-b]pyrazin-1(2H)-yl)-1H-pyrazol-1-yl)-2-azaspiro[3.3]heptan-2-yl)prop-2-en-1-one]",> 5000 nM
2,"C=CC(=O)N1CC2(CC(n3nc(N4C[C@H]5C[C@@H]4CN5C(C)=O)c(-c4c(Cl)c(C)cc5[nH]ncc45)c3C)C2)C1 [Example 5, 1-(6-(3-((1R,4R)-5-acetyl-2,5-diazabicyclo[2.2.1]heptan-2-yl)-4-(5-chloro-6-methyl-1H-indazol-4-yl)-5-methyl-1H-pyrazol-1-yl)-2-azaspiro[3.3]heptan-2-yl)prop-2-en-1-one]",2200 nM
3,"C=CC(=O)N1CC2(CC(n3nc(N4CCC(N(C)C5COC5)CC45CCC5)c(-c4c(Cl)c(C)cc5[nH]nc(N)c45)c3C)C2)C1 (single isomer, unassigned) [Example 116a, 1-(6-(4-(3-amino-5-chloro-6-methyl-1H-indazol-4-yl)-5-methyl-3-(8-(methyl(oxetan-3-yl)amino)-5-azaspiro[3.5]nonan-5-yl)-1H-pyrazol-1-yl)-2-azaspiro[3.3]heptan-2-yl)prop-2-en-1-one]",205 nM
4,"C=CC(=O)N1CC2(CC(n3nc(N4CCC(N(C)C(=O)COC)CC4(C)C)c(-c4c(Cl)c(C)cc5[nH]ncc45)c3C)C2)C1 (single isomer, unassigned) [Example 97a, N-(1-(1-(2-acryloyl-2-azaspiro[3.3]heptan-6-yl)-4-(5-chloro-6-methyl-1H-indazol-4-yl)-5-methyl-1H-pyrazol-3-yl)-2,2-dimethylpiperidin-4-yl)-2-methoxy-N-methylacetamide]",300 nM
5,"C=CC(=O)N1CC2(CC(n3nc(N4CCC(N(C)C(=O)COC)CC4(C)C)c(-c4c(Cl)c(C)cc5[nH]ncc45)c3C)C2)C1 (single isomer, unassigned) [Example 96b, N-(1-(1-(2-acryloyl-2-azaspiro[3.3]heptan-6-yl)-4-(5-chloro-6-methyl-1H-indazol-4-yl)-5-methyl-1H-pyrazol-3-yl)-2,2-dimethylpiperidin-4-yl)-2-methoxy-N-methylacetamide]",11 nM
6,"C=CC(=O)N1CC2(CC(n3nc(N4CCc5nn(C)c(=O)cc5C4)c(-c4c(Cl)c(C)cc5[nH]ncc45)c3C)C2)C1 (single isomer, unassigned) [Example 40b, 6-(1-(2-acryloyl-2-azaspiro[3.3]heptan-6-yl)-4-(5-chloro-6-methyl-1H-indazol-4-yl)-5-methyl-1H-pyrazol-3-yl)-2-methyl-5,6,7,8-tetrahydropyrido[4,3-c]pyridazin-3(2H)-one]",633 nM
7,"C=CC(=O)N1CC2(CC(n3nc(N4CCc5cnn(C)c5C4)c(-c4c(Cl)c(C)cc5[nH]ncc45)c3C)C2)C1 (single isomer, unassigned) [Example 14b, 1-(6-(4-(5-chloro-6-methyl-1H-indazol-4-yl)-5-methyl-3-(1-methyl-1,4,5,7-tetrahydro-6H-pyrazolo[3,4-c]pyridin-6-yl)-1H-pyrazol-1-yl)-2-azaspiro[3.3]heptan-2-yl)prop-2-en-1-one]",364 nM
8,"C=CC(=O)N1CC2(CC(n3nc(N4CCN(C5CC6(COC6)C5)CC45CCC5)c(-c4c(Cl)c(C)cc5[nH]ncc45)c3C)C2)C1 (single isomer, unassigned) [Example 135a, 1-(6-(3-(8-(2-oxaspiro[3.3]heptan-6-yl)-5,8-diazaspiro[3.5]nonan-5-yl)-4-(5-chloro-6-methyl-1H-indazol-4-yl)-5-methyl-1H-pyrazol-1-yl)-2-azaspiro[3.3]heptan-2-yl)prop-2-en-1-one]",> 5000 nM
9,"C=CC(=O)N1CC2(CC(n3nc(N4C[C@@H]5C[C@H]4CN5C(C)=O)c(-c4c(Cl)c(C)cc5[nH]ncc45)c3C)C2)C1 [Example 6, 1-(6-(3-((1S,4S)-5-acetyl-2,5-diazabicyclo[2.2.1]heptan-2-yl)-4-(5-chloro-6-methyl-1H-indazol-4-yl)-5-methyl-1H-pyrazol-1-yl)-2-azaspiro[3.3]heptan-2-yl)prop-2-en-1-one]",1000 nM
10,"C=CC(=O)N1CC2(CC(n3nc(N4CCN(C5CCOCC5)C[C@@]4(C)C(F)F)c(-c4c(Cl)c(Cl)cc5[nH]ncc45)c3C)C2)C1 (single isomer, unassigned) [Example 106b]",14 nM
11,"Cc1cc2[nH]ncc2c(-c2c(N3CCN(C4COC4)CC34CCC4)nn(C3CC4(C3)CN(C(=O)/C=C/CF)C4)c2C)c1Cl (single isomer, unassigned) [Example 113a, (E)-1-(6-(4-(5-chloro-6-methyl-1H-indazol-4-yl)-5-methyl-3-(8-(oxetan-3-yl)-5,8-diazaspiro[3.5]nonan-5-yl)-1H-pyrazol-1-yl)-2-azaspiro[3.3]heptan-2-yl)-4-fluorobut-2-en-1-one]",> 5000 nM

# More lines, now with the values ahead:
row,IC50,Compound
1,8 nM,"C=CC(=O)N1CC2(CC(n3nc(N4CC[C@@H](CN5CCn6cnnc6C5)CC4(C)C)c(-c4c(Cl)c(Cl)cc5[nH]ncc45)c3C)C2)C1 (single isomer, unassigned) [Example 250b]"
2,36 nM,"C=CC(=O)N1CC2(CC(n3nc(N4CC=C(CN5CCOCC5)CC4(C)C)c(-c4c(Cl)c(Cl)cc5[nH]ncc45)c3C)C2)C1 (single isomer, unassigned) [Example 220b, 1-(6-(4-(5,6-dichloro-1H-indazol-4-yl)-3-(2,2-dimethyl-4-(morpholinomethyl)-3,6-dihydropyridin-1(2H)-yl)-5-methyl-1H-pyrazol-1-yl)-2-azaspiro[3.3]heptan-2-yl)prop-2-en-1-one]"
3,114 nM,"C=CC(=O)N1CC2(CC(n3nc(N4CCN(CCO)CC4(C)C)c(-c4c(Cl)c(C)cc5[nH]ncc45)c3C)C2)C1 (single isomer, unassigned) [Example 163b, 1-(6-(4-(5-chloro-6-methyl-1H-indazol-4-yl)-3-(4-(2-hydroxyethyl)-2,2-dimethylpiperazin-1-yl)-5-methyl-1H-pyrazol-1-yl)-2-azaspiro[3.3]heptan-2-yl)prop-2-en-1-one]"
4,2900 nM,"C=CC(=O)N1CC2(CC(n3nc(N4CC[C@@H](CN5CCOC6CS(=O)(=O)CC65)CC4(C)C)c(-c4c(Cl)c(Cl)cc5[nH]ncc45)c3C)C2)C1 (single isomer, unassigned) [Example 265a, 1-(6-(4-(5,6-dichloro-1H-indazol-4-yl)-3-((R)-4-(((4aR*,7aS*)-6,6-dioxidohexahydro-4H-thieno[3,4-b][1,4]oxazin-4-yl)methyl)-2,2-dimethylpiperidin-1-yl)-5-methyl-1H-pyrazol-1-yl)-2-azaspiro[3.3]heptan-2-yl)prop-2-en-1-one]"
5,9 nM,"C=CC(=O)N1CC2(CC(n3nc(N4CC[C@@H](CN5CCO[C@@H](CO)C5)CC4(C)C)c(-c4c(Cl)c(Cl)cc5[nH]ncc45)c3C)C2)C1 (single isomer, unassigned) [Example 247b]"
6,1000 nM,"C=CC(=O)N1CC2(CC(n3nc(N4CC[C@@H](CN5CC6(CCCO6)C5)CC4(C)C)c(-c4c(Cl)c(Cl)cc5[nH]ncc45)c3C)C2)C1 (single isomer, unassigned) [Example 234a]"
7,7 nM,"C=CC(=O)N1CC2(CC(n3nc(N4CCC(CN5CCOCC5)CC4(C)CC)c(-c4c(Cl)c(C)cc5[nH]ncc45)c3C)C2)C1 (single isomer, unassigned) [Example 222b, 1-(6-(4-(5-chloro-6-methyl-1H-indazol-4-yl)-3-(2-ethyl-2-methyl-4-(morpholinomethyl)piperidin-1-yl)-5-methyl-1H-pyrazol-1-yl)-2-azaspiro[3.3]heptan-2-yl)prop-2-en-1-one]"
8,> 5000 nM,"C=CC(=O)N1CC2(CC(n3nc(N4CCC5(CN(C)CCO5)CC4(C)C)c(-c4c(Cl)c(C)cc5[nH]ncc45)c3C)C2)C1 (single isomer, unassigned) [Example 207a, 1-(6-(4-(5-chloro-6-methyl-1H-indazol-4-yl)-5-methyl-3-(4,8,8-trimethyl-1-oxa-4,9-diazaspiro[5.5]undecan-9-yl)-1H-pyrazol-1-yl)-2-azaspiro[3.3]heptan-2-yl)prop-2-en-1-one]"
9,> 5000 nM,"C=CC(=O)N1CC2(CC(n3nc(N4CC[C@@H](CN5C[C@H](O)C[C@@H](F)C5)CC4(C)C)c(-c4c(Cl)c(Cl)cc5[nH]ncc45)c3C)C2)C1 (single isomer, unassigned) [Example 300a, 1-(6-(4-(5,6-dichloro-1H-indazol-4-yl)-3-((R)-4-(((3R*,5R*)-3-fluoro-5-hydroxypiperidin-1-yl)methyl)-2,2-dimethylpiperidin-1-yl)-5-methyl-1H-pyrazol-1-yl)-2-azaspiro[3.3]heptan-2-yl)prop-2-en-1-one]"
10,1800 nM,"C=CC(=O)N1CC2(CC(n3nc(N4CC[C@@H](CN5CCN(C6COC6)CC5)CC4(C)C)c(-c4c(Cl)c(F)cc5[nH]ncc45)c3C)C2)C1 (single isomer, unassigned) [Example 245a]"
11,9 nM,"C=CC(=O)N1CC2(CC(n3nc(N4CC[C@@H](CN5CCN(CCO)C(=O)C5)CC4(C)C)c(-c4c(Cl)c(Cl)cc5[nH]ncc45)c3C)C2)C1 (single isomer, unassigned) [Example 251b]"
12,7 nM,"C=CC(=O)N1CC2(CC(n3nc(N4CC[C@@H](CN5CCN(C(=O)CO)CC5)CC4(C)C)c(-c4c(Cl)c(Cl)cc5[nH]ncc45)c3C)C2)C1 (single isomer, unassigned) [Example 310b]"
13,14 nM,"C=CC(=O)N1CC2(CC(n3nc(N4CC[C@@H](CN5CCO[C@@H](C(N)=O)C5)CC4(C)C)c(-c4c(Cl)c(Cl)cc5[nH]ncc45)c3C)C2)C1 (single isomer, unassigned) [Example 271b]"
14,> 50000 nM,"C=CC(=O)N1CC2(CC(n3nc(N4CCN(C(C)=O)CC4)c(-c4c(Cl)ccc5[nH]ncc45)c3C)C2)C1C (single isomer, unassigned) [Example 196a, 1-(6-(3-(4-acetylpiperazin-1-yl)-4-(5-chloro-1H-indazol-4-yl)-5-methyl-1H-pyrazol-1-yl)-1-methyl-2-azaspiro[3.3]heptan-2-yl)prop-2-en-1-one]"
